Two molecules from publication PMC9283466, “In silico identification of two peptides with antibacterial activity against multidrug-resistant Staphylococcus aureus” (NPJ Biofilms and Microbiomes, 2022) can be followed below.

One assay has as its system K. pneumoniae 526903. Briefly: microbe, parasite or virus in culture. In kind it is cell-based, Klebsiella pneumoniae. As to conditions: 526903. The method, then:
(§1) To determine the antimicrobial activity of the new antimicrobial peptides, HG2 and HG4, their minimum inhibitory concentrations (MICs) were determined by broth microdilution method[51] in cation adjusted Mueller Hinton broth (MHB) following the International Organisation for Standardisation (ISO) 20776-1 standard for MIC testing using a final bacterial inoculum of 5 × 10^5 CFU/ml[52]. […] The peptides dissolved in sterile distilled water were added to bacteria culture and incubated overnight at appropriate conditions. The MICs of the peptides and comparator antibiotics were recorded after 18–24 h. The minimum bactericidal concentrations (MBCs) were also determined and were taken as the lowest concentration of the antimicrobial that prevented the growth of bacterial cells after the subculture of cells (from MIC treatment) onto antibiotic-free media.

In assay [1] the test system is K. pneumoniae ATCC 700603. Briefly: microbe, parasite or virus in culture. The assay is classed as cell-based, Klebsiella pneumoniae. As to conditions: ATCC 700603. The method, then: as §1
The subject of a further assay is K. pneumoniae NCTC 13442. Briefly: microbe, parasite or virus in culture. In kind it is cell-based, Klebsiella pneumoniae. As to conditions: NCTC 13442. The method, then:
as §1

The next assay has as its system K. pneumoniae 518842. Briefly: microbe, parasite or virus in culture. In kind it is cell-based, Klebsiella pneumoniae. As to conditions: 518842. The method, then:
as §1

For assay [2], the system named is S. aureus MRSA USA300 cells. Briefly: Transcriptomic analysis (RNA-Seq, DESeq2). The assay is classed as cell-based, Staphylococcus aureus. As to conditions: MIC concentration for 60 min; p <0.05, abs(log2FC)> 2. The method, then: The mechanism of action and effects of HG2 and HG4 against S. aureus MRSA USA300 was investigated using transcriptomics analysis[57],[58]. […] The increased sample volume and limited treatment time of 60 min served to maintain the quality and yield of RNA. Untreated cells served as control. Cells were washed and resuspended in PBS and then RNAprotect Bacteria Reagent (QIAGEN, Hilden, Germany) was added and pelleted. This was followed by incubation in Tris-EDTA buffer containing Proteinase K and Bacterial Lysis Mix (Mutanolysin and Lysozyme) at room temperature for 10 min addition. Thereafter, RNA extraction was performed using the Qiagen RNeasy Plus Mini Kit following the manufacturer’s protocol (Qiagen, Manchester, UK). RNA was quantified using a Qubit™ fluorometer with a broad range RNA kit (Invitrogen, USA), according to the manufacturer’s instructions. All experiments were carried out in triplicates. […]
Analysis of sequencing data was carried out using the Geneious Prime® (2021.1.1) software (Biomatters Ltd, New Zealand)[59]. Firstly, all raw paired-end fastq reads passing quality check by FastQC v0.11.9 were mapped to the reference genome (Staphylococcus aureus subsp. aureus USA300_TCH1516 downloaded from the NCBI website), using Geneious RNA-Seq mapper. […]

In the next assay the test system is MRSA USA300 cells. As to the kind of experiment: Serial passage / resistance assay. In kind it is cell-based, Staphylococcus aureus. The settings on record: for fold increase in MIC during serial passage: sub-MIC exposure over 20 days, MRSA USA300; for resistant mutants after serial passage: sub-lethal doses over a period of 20 days. On the procedure:
In vitro evaluation of the potential for MRSA USA3000 cells to develop resistance to HG2 and HG4 was performed as follows. […] Cultures from the highest concentration that supported growth were diluted 1: 1000 in MHB and used to provide the inoculum for the next passage day. This process was performed for a total duration of 20 days. Any putative mutants recovered were isolated via streak dilution for three generations on MHA, prior to further characterisation.

For assay [3], the system named is MRSA USA300 cytoplasmic membrane. The assay is classed as cell-based, Staphylococcus aureus. The settings on record: for EC50 of membrane permeabilisation: USA300, 3 h. The method, then: Permeabilisation of the bacterial cytoplasmic membrane by HG2 and HG4 peptide was evaluated using the cell-impermeable DNA probe propidium iodide[14],[40]. Logarithmic-phase bacterial suspension of MRSA USA300 was prepared by diluting overnight cultures in fresh MHB (1 in 10 dilutions), incubated (3 h; 37 °C; 200 rpm), and pelleted by centrifugation (5 min; 3000×g). The bacterial cell pellet was then resuspended in sterile PBS at ~10^9 bacteria/ml. Propidium iodide (at 1 mg/ml, Sigma-Aldrich) was added to the bacterial suspension at a final concentration of 60 µM. This suspension (100 µl) was then transferred into black 96-well plates already containing 100 µl of serially diluted HG2 or HG4 peptide in PBS. Kinetics of fluorescence variations (excitation at 530 nm/emission at 590 nm) were then recorded using a microplate reader for a duration of 80 min with incubation at 37 °C. Cetyl trimethylammonium bromide (CTAB) (at 300 µM) served as positive control giving 100% permeabilisation. The permeabilisation effect of HG2 and HG4 were expressed as a percentage of total permeabilisation.

Values after ≈ are worked out from the molar mass of the structure shown. Bridge positions count the residues as written; N and C are the ends. Peptide text beside a SMILES is read from it. Some results are limits rather than exact numbers.

In the case of `CC[C@H](C)[C@H](NC(=O)[C@H](CC(C)C)NC(=O)[C@H](CC(C)C)NC(=O)[C@H](C)NC(=O)CNC(=O)CNC(=O)[C@@H](NC(=O)[C@@H](NC(=O)[C@H](CC(C)C)NC(=O)[C@H](C)NC(=O)[C@H](CC(C)C)NC(=O)CNC(=O)[C@H](CC(C)C)NC(=O)[C@@H](N)C(C)C)[C@@H](C)CC)C(C)C)C(=O)N[C@@H](CCCCN)C(=O)N[C@@H](CCCCN)C(=O)N[C@@H](CCCCN)C(=O)N[C@@H](CCC(N)=O)C(=O)N[C@@H](C)C(=O)N[C@@H](CCCCN)C(=O)N[C@@H](CO)C(N)=O` [HG4] (H-VLGLALIVGGALLIKKKQAKS-NH2; N-terminus and C-terminus assumed), the MIC in the assay on K. pneumoniae 526903 was 512 µg/mL (≈ 242 µM); in assay [1], greater than 512 µg/mL; against K. pneumoniae NCTC 13442 it was 512 µg/mL (≈ 242 µM); in the assay with K. pneumoniae 518842 it was 512 µg/mL (≈ 242 µM). The “number of differentially expressed genes (DEGs)” value in assay [2] came to 123. Further, the “fold increase in MIC during serial passage” value with MRSA USA300 cells is given as 1–2 fold. The “resistant mutants after serial passage” value in the assay on MRSA USA300 cells is recorded as “did not produce resistant mutants”. Further, the “EC50 of membrane permeabilisation” value in assay [3] amounted to 13.85 ± 3.22 µg/mL.
Regarding `CC[C@H](C)[C@H](NC(=O)[C@H](CC(C)C)NC(=O)[C@H](CC(C)C)NC(=O)[C@H](CC(C)C)NC(=O)[C@H](CCCCN)NC(=O)[C@H](CCCCN)NC(=O)[C@@H](N)CCSC)C(=O)N[C@@H](CC(C)C)C(=O)N[C@@H](Cc1ccccc1)C(=O)N[C@H]1CSSC[C@@H](C(=O)N[C@@H](CCCCN)C(=O)N[C@@H](CCCCN)C(=O)N[C@@H](C)C(=O)N2CCC[C@H]2C(N)=O)NC(=O)CNC(=O)[C@H](C)NC(=O)[C@H](CC(C)C)NC(=O)[C@H](C)NC(=O)[C@H](CC(C)C)NC(=O)[C@H](C)NC(=O)[C@H](CC(C)C)NC1=O` [HG2] (H-MKKLLLILFCLALALAGCKKAP-NH2; disulfide 10-18; N-terminus assumed), the MIC in the assay with K. pneumoniae 526903 was greater than 512 µg/mL; in assay [1] it was greater than 512 µg/mL; against K. pneumoniae NCTC 13442 it was 512 µg/mL (≈ 217 µM); against K. pneumoniae 518842 it was 512 µg/mL (≈ 217 µM). In addition, the “number of differentially expressed genes (DEGs)” value in assay [2] was determined as 114. Besides, the “fold increase in MIC during serial passage” value with MRSA USA300 cells is recorded as 1–2 fold. Further, the “resistant mutants after serial passage” value with MRSA USA300 cells was “did not produce resistant mutants”. Besides, in assay [3], the “EC50 of membrane permeabilisation” value is 1.351 ± 0.27 µg/mL. Besides, the “permeabilisation at 1 min” value in assay [3] (at MIC concentration) amounted to 80%.
